Data as given in the NIST ThermoML archive (doi:10.1021/je049721u).

Assay: mn = molality of the nth substance listed, in mol/kg
Conditions: 101.3 kPa, Liquid; for speed of sound: Pulse-echo method

[Ni+2].[O-][Cl+3]([O-])([O-])[O-].[O-][Cl+3]([O-])([O-])[O-] [nickel perchlorate] + CN(C)C=O
Conditions | mass density, 283.15 K [kg/m3] | mass density, 293.15 K [kg/m3] | mass density, 298.15 K [kg/m3] | mass density, 303.15 K [kg/m3] | mass density, 313.15 K [kg/m3] | mass density, 323.15 K [kg/m3] | mass density, 333.15 K [kg/m3] | speed of sound, 298.15 K [m/s]
m1 = 0.027 | – | – | – | – | – | – | – | 1459.6
m1 = 0.02709 | 963.872 | 954.383 | 949.635 | 944.864 | 935.312 | 925.725 | 916.07 | –
m1 = 0.0405 | 966.705 | 957.208 | 952.461 | 947.7 | 938.159 | 928.568 | 918.935 | 1460.7
m1 = 0.054 | 969.549 | 960.073 | 955.329 | 950.578 | 941.045 | 931.471 | 921.848 | 1461.7
m1 = 0.0681 | 972.55 | 963.083 | 958.342 | 953.59 | 944.072 | 934.511 | 924.9 | 1462.9
m1 = 0.08156 | 975.396 | 965.94 | 961.2 | 956.46 | 946.947 | 937.4 | 927.809 | 1463.9
m1 = 0.1073 | 980.845 | 971.397 | 966.666 | 961.935 | 952.463 | 942.934 | 933.366 | 1466
m1 = 0.1332 | 986.418 | 976.985 | 972.262 | 967.533 | 958.059 | 948.552 | 939.005 | 1467.8
m1 = 0.1592 | 992.026 | 982.603 | 977.888 | 973.17 | 963.711 | 954.224 | 944.695 | 1470
m1 = 0.1864 | 997.967 | 988.557 | 983.849 | 979.136 | 969.697 | 960.23 | 950.732 | 1471.8
m1 = 0.2118 | 1003.54 | 994.141 | 989.44 | 984.736 | 975.313 | 965.882 | 956.405 | 1473.6
m1 = 0.2613 | 1014.55 | 1005.16 | 1000.47 | 995.784 | 986.394 | 976.988 | 967.56 | 1477.5
